Tests used:
BaF3 (EGFR Del19/C797S) = target: T1, BaF3 (EGFR Del19/C797S) (Homo sapiens, UniProt P00533, C797S, cells depend on it, form not given); experiment: Cell proliferation IC50 assay (Cell Titer GLO), BaF3 DC cells; type: cell-based, mouse; details: Table 6, 72 h
T1 construct: BaF3 (EGFR Del19/C797S)|DC|RPMI1640 + 10% FBS
How it was run: (§1)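 Cells plated at 2000-4000 cells/well and treated the next day with serially diluted compound for 72 h at 37° C, 5% CO2. Viability read by CellTiter-Glo luminescence, normalised to DMSO and cell-free blank controls; IC50 fitted from growth inhibition curves.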

BaF3 (EGFR WT) = experiment: Cell proliferation IC50 assay (Cell Titer GLO), BaF3 WT cells; type: cell-based; details: Mus musculus, Ba/F3 EGFR, Table 6, 10 ng/ml EGF, 72 h
How it was run: as §1

[1] = system: BaF3 (EGFR L858R/T790M/C797S); experiment: Cell proliferation IC50 assay (Cell Titer GLO), BaF3 LTC cells; type: cell-based; details: Mus musculus, Ba/F3 EGFR, Table 6, 72 h
How it was run: as §1

BaF3 patent = experiment: Cell proliferation IC50 assay (Cell Titer GLO), BaF3 parental cells; type: cell-based; details: Mus musculus, Table 6, 10 ng/ml mIL3, 72 h
Method: (§2) IC50 of compounds in the present invention was determined by Cell Titer GLO reagent from Promega. The procedures are as follows:
(§3) Tumor cells were cultured in specified medium in an incubator at 37° C. and 5% CO2. The cells were passaged periodically. Cells at the logarithmic growth phase were collected for plating at a density of 2000-4000 cells/well. The next day, the compounds of the present invention were serially diluted and added to the cells, with DMSO being the negative control and the culture media without cells being the blank control. The plate was incubated in the incubator for 72 h. The cell viability assay was performed by adding the detection reagents to the cell culture media according to Cell Titer GLO reagent instructions and detecting luminescent signals on an EnVision microplate reader (PerkinElmer).
(§4) Inhibition of cell growth by the compounds of the present invention was plotted by Prism Graphpad software for statistically calculating the IC50 of the compound of the present invention.

A431 = experiment: Cell proliferation IC50 assay (Cell Titer GLO), A431 cells; type: cell-based; details: Homo sapiens, A-431; Table 6; A431, 72 h; read-out: A431 IC50
How it was run: as §1

[2] = system: BaF3 (EGFR Del19/T790M/C797S); experiment: Cell proliferation IC50 assay (Cell Titer GLO), BaF3 DTC cells; type: cell-based; details: Mus musculus, Ba/F3 EGFR-Del19/T790M/C797S, Table 6, 72 h
Method: as §2, §3, §4

T1 sequence (P00533 with tags, fused parts or gaps DEL746-750/C797S, form open): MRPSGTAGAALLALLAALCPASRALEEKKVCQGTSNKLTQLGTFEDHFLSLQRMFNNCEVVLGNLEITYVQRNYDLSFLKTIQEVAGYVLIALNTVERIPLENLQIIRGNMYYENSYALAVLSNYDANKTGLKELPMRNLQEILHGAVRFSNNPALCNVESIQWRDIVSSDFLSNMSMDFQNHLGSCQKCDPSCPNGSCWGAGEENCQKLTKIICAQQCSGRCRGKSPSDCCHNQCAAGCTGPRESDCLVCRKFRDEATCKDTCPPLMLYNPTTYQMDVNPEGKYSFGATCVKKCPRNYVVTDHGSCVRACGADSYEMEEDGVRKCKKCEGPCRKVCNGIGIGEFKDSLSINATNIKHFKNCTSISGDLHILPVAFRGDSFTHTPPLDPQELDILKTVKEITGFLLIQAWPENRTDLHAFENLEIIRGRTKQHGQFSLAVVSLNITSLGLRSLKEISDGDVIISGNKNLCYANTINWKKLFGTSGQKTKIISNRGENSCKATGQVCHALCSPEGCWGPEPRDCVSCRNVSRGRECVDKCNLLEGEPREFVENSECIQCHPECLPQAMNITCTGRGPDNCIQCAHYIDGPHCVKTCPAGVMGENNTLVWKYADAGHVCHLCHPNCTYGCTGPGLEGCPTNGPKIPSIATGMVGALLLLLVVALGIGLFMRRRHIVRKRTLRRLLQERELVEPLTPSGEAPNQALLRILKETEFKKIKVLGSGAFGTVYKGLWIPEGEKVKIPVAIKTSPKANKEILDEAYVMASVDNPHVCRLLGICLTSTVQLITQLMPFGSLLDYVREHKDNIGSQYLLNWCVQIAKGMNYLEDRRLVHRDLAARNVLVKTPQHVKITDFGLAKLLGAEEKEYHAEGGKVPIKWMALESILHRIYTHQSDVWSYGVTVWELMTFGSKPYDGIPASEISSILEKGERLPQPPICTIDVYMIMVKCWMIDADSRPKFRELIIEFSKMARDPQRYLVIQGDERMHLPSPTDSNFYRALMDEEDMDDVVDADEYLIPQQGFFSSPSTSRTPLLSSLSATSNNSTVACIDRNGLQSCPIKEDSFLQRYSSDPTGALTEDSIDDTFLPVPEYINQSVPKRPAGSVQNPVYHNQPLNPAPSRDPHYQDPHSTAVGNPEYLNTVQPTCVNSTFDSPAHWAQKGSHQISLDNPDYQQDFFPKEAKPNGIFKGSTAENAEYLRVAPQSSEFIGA

SMILES	IC50 (BaF3 (EGFR Del19/C797S)) [nM]	IC50 (BaF3 (EGFR WT)) [nM]	IC50 [1] [nM]	IC50 (A431) [nM]	IC50 [2] [nM]	IC50 (BaF3 patent) [nM]
CCc1cc(Nc2ncc(Cl)c(Nc3ccccc3P(C)(C)=O)n2)c(OC(F)F)cc1N1CCC(N2CCN(CCOc3cccc4c3CN(C3CCC(=O)NC3=O)C4=O)CC2)CC1 (stereo not shown) [Example E151]	6.7	> 4000	56.1	3160	3.85	
COc1cc(N2CCC(N3CCN(CCCCOc4cccc5c4CN(C4CCC(=O)NC4=O)C5=O)CC3)CC2)c(C2CC2)cc1Nc1ncc(Cl)c(Nc2ccccc2P(C)(C)=O)n1 (stereo not shown) [Example E35]	8.9	2500	25.7	1640	5.59	
CCc1cc(Nc2ncc(Cl)c(Nc3ccccc3P(C)(C)=O)n2)c(OC)cc1N1CCC(N2CCN(CCCCCc3ccc4c(c3)CN(C3CCC(=O)NC3=O)C4=O)CC2)CC1 (stereo not shown) [Example E38]	3.4	461	16.5	1020	6.23	
COc1cc(N2CCC(N3CCN(CCOc4cccc5c4CN(C4CCC(=O)NC4=O)C5=O)CC3)CC2)c(C(C)=O)cc1Nc1ncc(Cl)c(Nc2ccccc2P(C)(C)=O)n1 (stereo not shown) [Example E185]	20.3	1650	144	1830	18.8	
CCc1cc(Nc2ncc(Cl)c(Nc3ccccc3P(C)(C)=O)n2)c(OC)cc1N1CCC(N2CCN(C(=O)CNc3cccc4c3C(=O)N(C3CCC(=O)NC3=O)C4=O)CC2)CC1 (stereo not shown) [Example E112]	10.7	> 4000	85.4	1370	18.4	
CCc1cc(Nc2ncc(Cl)c(Nc3ccccc3P(C)(C)=O)n2)c(OC)cc1N1CCC(N2CCN(CC(C)(C)Oc3cccc4c3CN(C3CCC(=O)NC3=O)C4=O)CC2)CC1 (stereo not shown) [Example E157]	33.7	3780	103	3170	11.2	

More lines, in order of falling IC50 (BaF3 (EGFR Del19/C797S)), values ahead:

IC50 (BaF3 (EGFR Del19/C797S)) [nM]	IC50 (BaF3 (EGFR WT)) [nM]	IC50 [1] [nM]	IC50 (A431) [nM]	IC50 [2] [nM]	SMILES	IC50 (BaF3 patent) [nM]
106	3970	106	1270	6.8	CCc1cc(Nc2ncc(Cl)c(Nc3ccc(F)cc3P(C)(C)=O)n2)c(OC)cc1N1CCC(N2CCN(CCOc3cccc4c3CN(C3CCC(=O)NC3=O)C4=O)CC2)CC1 (stereo not shown) [Example E124]	
79.9	1150	1040	3650	89.5	CCc1cc(Nc2ncc(Cl)c(Nc3ccccc3P(C)(C)=O)n2)c(OC)cc1N1CCC2(CCN(CCCCOc3ccc(NC4CCC(=O)NC4=O)cc3)CC2)CC1 (stereo not shown) [Example E89]	
16.7	> 4000	218	≥ 1540	10.7	CCc1cc(Nc2ncc(Cl)c(Nc3ccccc3P(C)(C)=O)n2)c(OC)cc1N1CCC(N2CCN(C(C)(C)C#Cc3cccc4c3CN(C3CCC(=O)NC3=O)C4=O)CC2)CC1 (stereo not shown) [Example E156]	
14.9	134	42.7			COc1cc(N2CCC(N3CCN(CCC#Cc4cccc5c4CN(C4CCC(=O)NC4=O)C5=O)CC3)CC2)c(C)cc1Nc1ncc(Br)c(Nc2ccccc2P(C)(C)=O)n1 (stereo not shown) [Example E7]	271
9.2	1200	17.7	1610	10.1	CCc1cc(Nc2ncc(Cl)c(Nc3ccccc3P(C)(C)=O)n2)c(Cl)cc1N1CCC(N2CCN(CCC#Cc3cccc4c3CN(C3CCC(=O)NC3=O)C4=O)CC2)CC1 (stereo not shown) [Example E46]	
4.3	> 4000	56.3	1220	7.32	CCc1cc(Nc2ncc(Cl)c(Nc3ccccc3P(C)(C)=O)n2)c(OC)cc1N1CCC(N(C)CCCCOc2cccc3c2CN(C2CCC(=O)NC2=O)C3=O)CC1 (stereo not shown) [Example E116]	
2.6	659	49.3	1150	7.31	CCc1cc(Nc2ncc(Cl)c(Nc3ccc(C)c(C)c3P(C)(C)=O)n2)c(OC)cc1N1CCC(N2CCN(CCCCOc3cccc4c3CN(C3CCC(=O)NC3=O)C4=O)CC2)CC1 (stereo not shown) [Example E63]	

Reference: patent US20240408216A1, “PROTEIN INHIBITOR OR DEGRADING AGENT, PHARMACEUTICAL COMPOSITION CONTAINING SAME AND PHARMACEUTICAL USE” (JING MEDICINE TECHNOLOGY (SHANGHAI) LTD., priority 2021, published 2024)
